Laboratory results reported in ChEMBL document CHEMBL6121016, “Design, Synthesis, and Biological Evaluation of 1,3,4-Thiadiazole Derivatives as Novel Potent Peptide Deformylase Inhibitors for Combating Drug-Resistant Gram-Positive and -Negative Bacteria” (J Med Chem, 2025).
Converted amounts (≈) assume the structure as drawn.

Assays:
Klebsiella pneumoniae [1] = assay: Antibacterial activity against Klebsiella pneumoniae CICC 21611 after 16 to 18 hrs by broth microdilution method; format: functional; conditions: time 16-18 hrs
[2] = test system: Staphylococcus epidermidis; assay: Antibacterial activity against Staphylococcus epidermidis after 16 to 18 hrs by broth microdilution method; format: functional; conditions: time 16-18 hrs
[3] = Cytotoxicity against human HEK293T cells assessed as cell viability at 3.125 to 100 uM incubated for 24 hrs by MTT assay; format: toxicity, cell-based, HEK-293T
Staphylococcus aureus [4] = assay: Antibacterial activity against methicillin-susceptible Staphylococcus aureus ATCC 13709 after 16 to 18 hrs by broth microdilution method; format: functional; conditions: time 16-18 hrs
Escherichia coli [5] = assay: Antibacterial activity against Escherichia coli ATCC 25922 after 16 to 18 hrs by broth microdilution method; format: functional; conditions: time 16-18 hrs
Staphylococcus aureus [6] = assay: Antibacterial activity against methicillin-resistant Staphylococcus aureus Bio-090770 after 16 to 18 hrs by broth microdilution method; format: functional; conditions: time 16-18 hrs
Staphylococcus aureus [7] = assay: Antibacterial activity against methicillin-susceptible Staphylococcus aureus ATCC 25923 after 16 to 18 hrs by broth microdilution method; format: functional; conditions: time 16-18 hrs
[8] = Methemoglobin toxicity in human blood at 500 uM incubated for 6 hrs by MetHb content assay; format: tissue-based
Staphylococcus aureus [9] = assay: Antibacterial activity against methicillin-susceptible Staphylococcus aureus ATCC 29213 after 16 to 18 hrs by broth microdilution method; format: functional; conditions: time 16-18 hrs
Staphylococcus aureus [10] = assay: Antibacterial activity against methicillin-resistant Staphylococcus aureus ATCC 33591 after 16 to 18 hrs by broth microdilution method; format: functional; conditions: time 16-18 hrs
Staphylococcus aureus [11] = assay: Antibacterial activity against methicillin-resistant Staphylococcus aureus ATCC 43300 after 16 to 18 hrs by broth microdilution method; format: functional; conditions: time 16-18 hrs
Acinetobacter baumannii [12] = assay: Antibacterial activity against Acinetobacter baumannii Bio 34235 after 16 to 18 hrs by broth microdilution method; format: functional; conditions: time 16-18 hrs
Acinetobacter baumannii [13] = assay: Antibacterial activity against drug-resistant Acinetobacter baumannii Bio 53272 after 16 to 18 hrs by broth microdilution method; format: functional; conditions: time 16-18 hrs
[14] = Cytotoxicity against human HeLa cells assessed as cell viability at 3.125 to 100 uM incubated for 24 hrs by MTT assay; format: toxicity, cell-based
Escherichia coli [15] = assay: Antibacterial activity against Escherichia coli ATCC 10663 after 16 to 18 hrs by broth microdilution method; format: functional; conditions: time 16-18 hrs
Escherichia coli [16] = assay: Antibacterial activity against Escherichia coli ATCC 10661 after 16 to 18 hrs by broth microdilution method; format: functional; conditions: time 16-18 hrs
Peptide deformylase [17] = target: T1, Peptide deformylase (Staphylococcus aureus, UniProt P68826); assay: Inhibition of Staphylococcus aureus PDF-Ni assessed as enzyme activity incubated for 30 min by fluorescamine method
T1 sequence (P68826 whole entry): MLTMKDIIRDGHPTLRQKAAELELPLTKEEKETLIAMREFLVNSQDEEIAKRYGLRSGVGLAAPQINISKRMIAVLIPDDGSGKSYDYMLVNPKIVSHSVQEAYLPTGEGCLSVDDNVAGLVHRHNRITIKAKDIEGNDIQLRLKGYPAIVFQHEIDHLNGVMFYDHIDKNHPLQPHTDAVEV

Klebsiella pneumoniae [18] = assay: Antibacterial activity against Klebsiella pneumoniae CICC 21092 after 16 to 18 hrs by broth microdilution method; format: functional; conditions: time 16-18 hrs
Peptide deformylase [19] = target: T2, Peptide deformylase (Escherichia coli, UniProt Q9JN24); assay: Inhibition of Escherichia coli PDF-Ni assessed as enzyme activity incubated for 30 min by fluorescamine method
T2 sequence (Q9JN24 whole entry): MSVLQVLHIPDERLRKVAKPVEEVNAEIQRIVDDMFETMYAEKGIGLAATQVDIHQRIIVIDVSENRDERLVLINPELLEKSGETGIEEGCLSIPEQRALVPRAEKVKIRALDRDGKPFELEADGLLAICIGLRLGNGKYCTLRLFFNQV

[20] = Aqueous solubility of compound at 0.9% aqueous NaCl solution incubated for 2 hrs by UV spectrophotometry analysis; format: physicochemical
Escherichia coli [21] = assay: Antibacterial activity against Escherichia coli ATCC 10668 after 16 to 18 hrs by broth microdilution method; format: functional; conditions: time 16-18 hrs
Acinetobacter baumannii [22] = assay: Antibacterial activity against Acinetobacter baumannii Bio 53250 after 16 to 18 hrs by broth microdilution method; format: functional; conditions: time 16-18 hrs
Klebsiella pneumoniae [23] = assay: Antibacterial activity against Klebsiella pneumoniae CICC 20093 after 16 to 18 hrs by broth microdilution method; format: functional; conditions: time 16-18 hrs
Acinetobacter baumannii [24] = assay: Antibacterial activity against Acinetobacter baumannii Bio 120982 after 16 to 18 hrs by broth microdilution method; format: functional; conditions: time 16-18 hrs
Acinetobacter baumannii [25] = assay: Antibacterial activity against Acinetobacter baumannii Bio 53272 after 16 to 18 hrs by broth microdilution method; format: functional; conditions: time 16-18 hrs
Acinetobacter baumannii [26] = assay: Antibacterial activity against Acinetobacter baumannii Bio 69680 after 16 to 18 hrs by broth microdilution method; format: functional; conditions: time 16-18 hrs
Acinetobacter baumannii [27] = assay: Antibacterial activity against Acinetobacter baumannii Bio 24253 after 16 to 18 hrs by broth microdilution method; format: functional; conditions: time 16-18 hrs

`CCCC[C@H](CN(O)C=O)C(=O)N1CCC[C@H]1c1nnc(-c2ccc(Cl)s2)s1` gave an MIC (Klebsiella pneumoniae [1]) of 32 µg/mL (≈ 72.2 µM), an MIC [2] of 0.5 µg/mL (≈ 1.13 µM) and an IC50 at 24 h [3] of over 100 µM. For the same compound, the MIC (Staphylococcus aureus [4]) was 1 µg/mL (≈ 2.26 µM), the MIC (Escherichia coli [5]) was 32 µg/mL (≈ 72.2 µM) and the MIC (Staphylococcus aureus [6]) was 1 µg/mL (≈ 2.26 µM). The MIC (Staphylococcus aureus [7]) was 1 µg/mL (≈ 2.26 µM), the Activity [8] was “Toxic” and the MIC (Staphylococcus aureus [9]) was 1 µg/mL (≈ 2.26 µM). For the same compound, the MIC (Staphylococcus aureus [10]) was 0.25 µg/mL (≈ 0.564 µM), the MIC (Staphylococcus aureus [11]) was 0.25 µg/mL (≈ 0.564 µM) and the MIC (Acinetobacter baumannii [12]) was 32 µg/mL (≈ 72.2 µM). It also gave an MIC (Acinetobacter baumannii [13]) of 16 µg/mL (≈ 36.1 µM) and an IC50 at 24 h [14] of over 100 µM.
Compound `CCCC[C@H](CN(O)C=O)C(=O)N1CCC[C@H]1c1nnc(-c2ccc(-c3ccccn3)cc2)s1` has an MIC (Klebsiella pneumoniae [1]) of 32 µg/mL (≈ 66.7 µM), an MIC (Escherichia coli [15]) of 16 µg/mL (≈ 33.4 µM) and an MIC (Escherichia coli [16]) of 16 µg/mL (≈ 33.4 µM). The IC50 (Peptide deformylase [17]) was 0.0043 µM, the MIC [2] was 1 µg/mL (≈ 2.09 µM) and the MIC (Klebsiella pneumoniae [18]) was 32 µg/mL (≈ 66.7 µM). The IC50 at 24 h [3] was over 100 µM, the IC50 (Peptide deformylase [19]) was 0.124 µM and the MIC (Staphylococcus aureus [4]) was 0.5 µg/mL (≈ 1.04 µM). It also gave a solubility at 2 h [20] of 370 µg/mL (≈ 771 µM), an MIC (Escherichia coli [21]) of 16 µg/mL (≈ 33.4 µM) and an MIC (Escherichia coli [5]) of 64 µg/mL (≈ 133 µM). It also gave an MIC (Staphylococcus aureus [6]) of 0.5 µg/mL (≈ 1.04 µM), an MIC (Staphylococcus aureus [7]) of 0.25 µg/mL (≈ 0.521 µM) and an MIC (Staphylococcus aureus [9]) of 0.5 µg/mL (≈ 1.04 µM). For the same compound, the MIC (Acinetobacter baumannii [22]) was 32 µg/mL (≈ 66.7 µM), the MIC (Staphylococcus aureus [10]) was 0.125 µg/mL (≈ 0.261 µM) and the MIC (Klebsiella pneumoniae [23]) was 16 µg/mL (≈ 33.4 µM). For the same compound, the MIC (Acinetobacter baumannii [24]) was 32 µg/mL (≈ 66.7 µM), the MIC (Staphylococcus aureus [11]) was 0.25 µg/mL (≈ 0.521 µM) and the MIC (Acinetobacter baumannii [25]) was 32 µg/mL (≈ 66.7 µM). The MIC (Acinetobacter baumannii [12]) was 32 µg/mL (≈ 66.7 µM), the MIC (Acinetobacter baumannii [13]) was 32 µg/mL (≈ 66.7 µM) and the IC50 at 24 h [14] was 89 µM. It also gave an MIC (Acinetobacter baumannii [26]) of 32 µg/mL (≈ 66.7 µM) and an MIC (Acinetobacter baumannii [27]) of 32 µg/mL (≈ 66.7 µM).
For `Nc1ccc(S(=O)(=O)c2ccc(N)cc2)cc1` [DAPSONE], the Activity [8] was “Toxic”.
With `CCCC[C@H](CN(O)C=O)C(=O)N1CCC[C@H]1c1nnc(-c2nccs2)s1` the MIC (Klebsiella pneumoniae [1]) was over 16 µg/mL, the MIC [2] was 0.25 µg/mL (≈ 0.61 µM) and the MIC (Staphylococcus aureus [4]) was 0.5 µg/mL (≈ 1.22 µM). The MIC (Escherichia coli [5]) was over 16 µg/mL, the MIC (Staphylococcus aureus [6]) was 1 µg/mL (≈ 2.44 µM) and the MIC (Staphylococcus aureus [7]) was 1 µg/mL (≈ 2.44 µM). For the same compound, the Activity [8] was “Toxic”, the MIC (Staphylococcus aureus [9]) was 2 µg/mL (≈ 4.88 µM) and the MIC (Staphylococcus aureus [10]) was 0.25 µg/mL (≈ 0.61 µM). It also gave an MIC (Staphylococcus aureus [11]) of 0.25 µg/mL (≈ 0.61 µM), an MIC (Acinetobacter baumannii [12]) of 16 µg/mL (≈ 39.1 µM) and an MIC (Acinetobacter baumannii [13]) of 8 µg/mL (≈ 19.5 µM).
